Entries after “also recorded” stand apart in the source; their conditions may differ.
Experiments:
[1] = system: human umbilical vein endothelial cells (HUVEC); assay: Intracellular calcium assay (Fluo-3, FLIPR) in HUVEC after thrombin; format: cell-based
Protocol: To assay for intracellular calcium levels, cell media was decanted and replaced with Fluo-3 AM (Molecular Probes) in […] of loading buffer with 1% Fetal Calf Serum (FCS) for 1 hour. Cells were rinsed with loading buffer and the 96-well plate was placed into a Fluorometric Imaging Plate Reader (FLIPR, Molecular Devices, Sunnyvale, Calif.). The relative intracellular calcium levels were monitored at […] for 210 seconds in 4 to 8 identically treated wells. To monitor calcium release from intracellular stores thrombin was delivered in buffer containing 10 mM EDTA. Various phospholipase C inhibitors were applied as well.

[2] = system: human umbilical vein endothelial cells (HUVEC); assay: Thrombin-induced cell rounding / contraction of HUVEC; format: cell-based; details: for % of cells round after thrombin: thrombin 10 pM 20 minutes (control 2%, thrombin alone 80%); for effect on thrombin-induced cell rounding / contraction: thrombin 10 pM 20 minutes
Protocol: Primary cultures of pooled Human umbilical vein endothelial cells (HUVEC) cells were purchased from Clonetics (Walkersville, Md.) and cultured according to the manufacturer's protocol. About 2500 cells/cm^2 were cultured in Endothelial Cell Growth Medium BulletKit-2 (Clonetics, Walkersville, Md.) on collagen (Gibco, Grand Island, N.Y.) coated RS Lab Tek II slides for 5 days until confluent. Cells were then cultured in low serum (0.5%) medium overnight. Cells were treated with 50 mM cyclocreatine for 3 to 4 hours, or with […] ROCK (Rho Kinase) inhibitor Y-27632 for 30 minutes, as described in Maekawa et al., (1999) Science 285: 895-8, hereby incorporated by reference in its entirety.
Thrombin was delivered at a final concentration of 10 pM for 20 minutes to endothelial cells. F-actin was stained with Alexa 594 phalloidin (Molecular Probes). HUVECs were examined under fluorescence and phase contrast micrography, and cells were scored as either round or flat.

astrocytes [3] = assay: Intracellular calcium assay (Fluo-3, FLIPR) in astrocytes after thrombin; format: cell-based, rat; details: thrombin 10 pM, cyclocreatine 50 mM 4 h or U-73122 1 μM 10 min
Protocol: Intracellular Calcium Assay. Astrocytes were treated with or without 50 mM cyclocreatine for 4 h. Cell medium was decanted and replaced with Fluo-3 AM (Molecular Probes) for 1 h. Some wells received 1 μM U-73122 (Biomol, Plymouth Meeting, Pa.) for 10 min before 10 pM thrombin and 10 mM EDTA injection. The relative intracellular calcium levels were monitored at […] for 210 sec in 4-8 identically treated wells by using a Fluorometric Imaging Plate Reader (Molecular Devices).

Ad12HER10 retinoblasts = assay: Thrombin/PAR-1 morphological response in retinoblasts; format: cell-based, human; details: Ad12HER10, data not shown
Protocol: Dominant Negative CKB Studies. The dominant negative CKB mutant C283S, described in Lin, et al., (1994) Biochim. Biophys. Acta 1206: 97-104, was cloned into the pIRES-EGFP vector (CLONTECH) and transfected for 6 h with Novafector (VennNova, LCC) into Ad12HER10 retinoblasts seeded into Lab-Tek II slides (Nunc). After 18 h, cells were differentiated with 2 mM dibutyryl cAMP in serum-free medium for 6 h. After addition of thrombin (160 nM) for 2 h, transfected cells (20-30%) were identified by fluorescence micrography, and the cell morphology of approximately 100 transfected cells was examined with phase-contrast illumination and scored blind to treatment as either refractile or flat.

astrocytes [4] = assay: Total cellular ATP levels and cell viability; format: cell-based, rat; details: data not shown
Protocol: Materials. The protein-protein interaction screen was performed by using the Matchmaker GAL4 two-hybrid system and a rat brain cDNA library (CLONTECH). Rabbit anti-PAR-1 antibody was a gift from M. Runge (University of Texas Medical Branch, Galveston), anti-CKB antibodies were obtained from Chemicon, and anti-RhoA was from Santa Cruz Biotechnology. CKB activity was measured with CK 520 Sigma. ATP levels were measured with the bioluminescent somatic cell assay (Sigma FL-ASC). Thrombin and purified CKB were purchased from Calbiochem, and cyclocreatine was purchased from Sigma. Site-directed mutagenesis was performed with Quick Change (Stratagene). G. Molloy (Delaware University) graciously provided the CKB plasmid, and T. Ma (Baylor College, Houston) provided the dominant negative CKB mutant. Statistical analysis was carried out by using two-way ANOVA.

platelets = assay: Thrombin-induced platelet aggregation in platelet-rich plasma (Chrono-Log aggregometer); format: cell-based, human; details: 30 min preincubation, 1 nM thrombin, PRP
Protocol: Blood from healthy volunteers was collected in an anti-coagulant citrate solution according to standard protocols. The whole blood/citrate solution was centrifuged at 200×g for 10 minutes to obtain platelet-rich plasma (PRP). The platelet count, as determined by Coulter Counter, was 2.88×10^8/mL. Aliquots (0.5 mL each) of the PRP were incubated with and without various concentrations of cyclocreatine (0 to 10 mM final concentration) for 30 minutes at room temperature. The aggregation assay was then carried out in the presence of thrombin (10 ul of thrombin was added to each aliquot, to a final concentration of 1 nM) with stirring at 37° C. using a Chrono-Log Whole Blood Aggregometer. (Chronolog Corp., Havertown, Pa.) Absorbance was measured at 500 nm.

[5] = system: primary cortical astrocyte cultures; assay: Astrocyte morphology studies (thrombin-induced shape change, stellate vs flat); format: cell-based, rat; details: for effect on morphological response of astrocytes to thrombin / fold greater number of astrocytes remaining stellate after thrombin: 10 pM thrombin 2 h; for fold greater number of astrocytes remaining stellate after thrombin: versus thrombin alone
Protocol: Coimmunoprecipitation. Primary cortical astrocyte cultures were prepared from 1- to 2-day-old Sprague-Dawley rats as described in Donovan, et al., (1997) J. Neurosci. 17: 5316-5326. Astrocytes were solubilized and incubated with control antibody (rabbit IgG) or anti-PAR-1 antibody overnight at 4° C. in the presence of protein A-Sepharose. Immunoprecipitation products were either subjected to CKB activity assays or separated by SDS/PAGE and analyzed on immunoblots with anti-CKB antibodies.
(§1) Astrocyte Morphology Studies. Oligonucleotides based on a CKB antisense sequence (GUGUCUGCAACAGCUUAGC-CAUCAG), a control reverse sequence ([…]), and an identical antisense sequence rendered insensitive to RNaseH were purchased from Sequitur (Natick, Mass.) and transformed into primary astrocyte cultures with Lipofectin (GIBCO/BRL) for 1 h. After 18 h, cells were differentiated in 1.5 mM dibutyryl cAMP for 2 h. A total of 10 pM thrombin was added for 2 h for a maximal response, and the morphology of approximately 200 cells was examined under phase-contrast micrography and scored as either stellate or flat. Antisense knockdown of CKB was confirmed by immunoblot analysis. Morphology assays were also performed after a 4-h treatment with 50 mM cyclocreatine.

RhoA = RhoA activation and translocation assay; format: cell-based, rat; details: astrocytes, 50 mM cyclocreatine 4 h
Protocol: RhoA Activation and Translocation Assay. Active RhoA levels were measured in primary rat astrocytes as described in Ren, et al., (1999) EMBO J. 18: 578-585. Astrocytes received a 4-h 50 mM cyclocreatine treatment before the thrombin (10 pM) addition for 10 min. Cell lysates were incubated with GST-Rhotekin binding domain (20-30 μg) for 45 min, washed, and immunoprobed with anti-RhoA antibody. For membrane RhoA, crude membrane fractions were prepared as described in Donovan, et al., (1997) J. Neurosci. 17: 5316-5326. Fifteen micrograms of membrane protein fractions was separated by SDS/PAGE and immunoblotted with anti-RhoA antibody.

CKB = CKB immunoblot after antisense knockdown; format: cell-based, rat; details: astrocytes, 18 h after transfection
Protocol: as §1

Molecule: CCCCCCCCCCCCCCCCCCOCC(COP(=O)([O-])OCC[N+](C)(C)C)OC (centres unmarked) [ET18-OCH3]
- effect on thrombin-induced calcium response (peak fluorescence) [1]: completely abolished

Molecule: C[C@@H](N)[C@H]1CC[C@H](C(=O)Nc2ccncc2)CC1 [ROCK (Rho Kinase) inhibitor, Y-27632, reference compound]
- % of cells round after thrombin ([2]; 10 mM Y-27632 for 30 minutes): 2%
- effect on thrombin-induced cell rounding / contraction [2]: completely blocked

Molecule: COc1ccc2c(c1)CC[C@@H]1[C@@H]2CC[C@]2(C)[C@@H](NCCCCCCN3C(=O)C=CC3=O)CC[C@@H]12 [U-73122, reference compound]
- effect on thrombin-induced calcium response (peak fluorescence) [1]: completely abolished
- effect on thrombin-induced peak intracellular calcium (astrocytes [3]): inhibited

Molecule: NC1=NCCN1CC(=O)O [cyclocreatine]
- effect on thrombin-induced calcium response (peak fluorescence) [1]: almost no effect; also recorded: no significant changes
- effect on thrombin/PAR-1 morphological response in retinoblasts (Ad12HER10 retinoblasts): blocked
- effect on cell viability (astrocytes [4]): no effect
- effect on total cellular ATP levels (astrocytes [4]): no effect
- % Aggregation of Platelets (platelets; 1 mM cyclocreatine): 88%
- % Aggregation of Platelets (platelets; 5 mM cyclocreatine): 11%
- % Aggregation of Platelets (platelets; 10 mM cyclocreatine): 0%
- % of cells round after thrombin ([2]; maximum dose of cyclocreatine (50 mM, 3 to 4 hours)): 20%
- effect on thrombin-induced cell rounding / contraction [2]: inhibited; also recorded: dose-dependent protective effect; also recorded: protected
- effect on morphological response of astrocytes to thrombin [5]: dose-dependent decrease
- fold greater number of astrocytes remaining stellate after thrombin [5]: ≤ 4 fold
- effect on morphological response of astrocytes to thrombin ([5]; listed as Cyclocreatine): protects
- RhoA translocation to the membrane after thrombin treatment (RhoA; thrombin 10 pM): almost no translocation
- GTP-RhoA after thrombin treatment (GST-rhotekin pull-down) (RhoA; thrombin 10 pM 10 min): significantly reduced
- effect on thrombin-induced peak intracellular calcium (astrocytes [3]): only a minor decline

Molecule: C/C=C(/C)C(=O)O[C@H]1C(C)=C2[C@H]([C@@H]1OC(=O)CCCCCCC)[C@@](C)(OC(C)=O)C[C@H](OC(=O)CCC)[C@@]1(O)[C@H]2OC(=O)[C@@]1(C)O [thapsigargin]
- effect on thrombin-induced calcium response (peak fluorescence) [1]: completely abolished

Molecule: CKB antisense ODNs: antisense oligonucleotide GUGUCUGCAACAGCUUAGC-CAUCAG directed toward the 3′ end of the CKB mRNA (Sequitur) (antisense GUGUCUGCAACAGCUUAGCCAUCAG; chemistry not given here)
- effect on cell viability (astrocytes [4]): did not affect
- effect on total cellular ATP levels (astrocytes [4]): did not affect
- effect on morphological response of astrocytes to thrombin [5]: no longer responded
- fold greater number of astrocytes remaining stellate after thrombin [5]: > 3 fold
- effect on astrocyte morphology without thrombin ([5]; treatment alone): without affecting
- CKB expression level (Western blot) (CKB): significantly lower levels

Molecule: reverse sequence ODN (Rev): control reverse sequence oligonucleotide GACUACCGAUUCGACAACGUCUGUG (chemistry not given here) [reference compound]
- effect on morphological response of astrocytes to thrombin [5]: Neither a reverse sequence ODN (Rev) nor the ODN rendered insensitive to RNaseH had any significant effect
- CKB expression level (Western blot) (CKB): Neither a reverse sequence ODN (Rev) nor the ODN rendered insensitive to RNaseH had any significant effect
